# Assay results taken from paper PMC3602015 (PLoS ONE, 2013).
# Assays:
# [1] = biological target: T1, human wild-type P-gp (ABCB1 1236C-2677G-3435C) (Homo sapiens, UniProt P08183, S893A); assay: cell-based
# Description: (§1) For efflux assays, 1×10^5 cells were seeded on 96-well plates and cultured for 24 hours. […] After washed with warm PBS, cells were allowed to efflux rhodamine123 for 10 min at 37°C in the incubator. Samples (150 µl) were collected and transferred to 96-well black plates. Rhodamine123 concentrations were measured using a set of standards (from 62.5 nM to 8 µM) in HBSS analyzed by the SpectraMax Gemini XS microplate spectrofluorometer (Molecular Devices Co., Sunnyvale, CA, USA) with the excitation set at 485 nm and the emission set at 535 nm. The measured rhodamine123 concentrations were normalized to the total protein content in the cells. Total protein concentrations were measured by a microplate assay protocol (Dc protein assay reagent, Bio-Rad, Hercules, CA, USA), and bovine serum albumin was used as the standard. Each experiment was repeated at least three times across cell passages to ensure stability of transfection and consistency and reproducibility of the experiments.
# (§2) For kinetic studies, kinetic parameters were estimated by nonlinear regression using Scientist v2.01 (MicroMath Scientific Software, Salt Lake City, UT, U.S.A.) according to the following equation: [drawing 6] Where V denoted the efflux rate; Vmax, the maximal efflux rate; Km, the Michaelis-Menten constant and C is the substrate concentration.
# [2] = biological target: T2, human P-gp with 1236T-2677A-3435T genotype (Homo sapiens, UniProt P08183, S893T); assay: cell-based
# Description: as §1, §2
# [3] = biological target: T3, human P-gp with 1236T-2677T-3435T genotype (Homo sapiens, UniProt P08183); assay: cell-based
# Description: as §1, §2
# Flp-In™-293 cells = assay: Cytotoxicity assay (MTT); format: cell-based, human; conditions: methadone 0.5 to 40 µM; 48 hours
# Description: Briefly, the cells were seeded into 24-well plates and cultured overnight. […] After incubation, the medium was removed and added fresh culture medium 200 µl containing 0.5 mg/ml MTT and then incubated at 37°C for 4 hours. After incubation, the medium was removed and 200 µl DMSO was added, and incubation for 30 minutes at room temperature. After incubation, 100 µl of solution was transferred to a 96-well plate and absorbance was measured using an ELISA plate reader (Molecular Devices, Sunnyvale, USA) at 570 nm with a reference wavelength of 650 nm.
# [4] = cited from earlier work
# [5] = biological target: T2, human P-gp with 1236T-2677A-3435T genotype
# Description: as §1, §2
# [6] = biological target: T3, human P-gp with 1236T-2677T-3435T genotype
# Description: as §1, §2
# [7] = biological target: T3, human P-gp with 1236T-2677T-3435T genotype; assay: in vitro
# Description: as §1, §2
# [8] = biological target: T2, human P-gp with 1236T-2677A-3435T genotype; assay: in vitro
# Description: as §1, §2
# [9] = biological target: T1, human wild-type P-gp (ABCB1 1236C-2677G-3435C)
# Description: as §1, §2
# [10] = biological target: T1, human wild-type P-gp (ABCB1 1236C-2677G-3435C); assay: in vitro
# Description: as §1, §2
# T1 sequence (P08183 whole entry S893A): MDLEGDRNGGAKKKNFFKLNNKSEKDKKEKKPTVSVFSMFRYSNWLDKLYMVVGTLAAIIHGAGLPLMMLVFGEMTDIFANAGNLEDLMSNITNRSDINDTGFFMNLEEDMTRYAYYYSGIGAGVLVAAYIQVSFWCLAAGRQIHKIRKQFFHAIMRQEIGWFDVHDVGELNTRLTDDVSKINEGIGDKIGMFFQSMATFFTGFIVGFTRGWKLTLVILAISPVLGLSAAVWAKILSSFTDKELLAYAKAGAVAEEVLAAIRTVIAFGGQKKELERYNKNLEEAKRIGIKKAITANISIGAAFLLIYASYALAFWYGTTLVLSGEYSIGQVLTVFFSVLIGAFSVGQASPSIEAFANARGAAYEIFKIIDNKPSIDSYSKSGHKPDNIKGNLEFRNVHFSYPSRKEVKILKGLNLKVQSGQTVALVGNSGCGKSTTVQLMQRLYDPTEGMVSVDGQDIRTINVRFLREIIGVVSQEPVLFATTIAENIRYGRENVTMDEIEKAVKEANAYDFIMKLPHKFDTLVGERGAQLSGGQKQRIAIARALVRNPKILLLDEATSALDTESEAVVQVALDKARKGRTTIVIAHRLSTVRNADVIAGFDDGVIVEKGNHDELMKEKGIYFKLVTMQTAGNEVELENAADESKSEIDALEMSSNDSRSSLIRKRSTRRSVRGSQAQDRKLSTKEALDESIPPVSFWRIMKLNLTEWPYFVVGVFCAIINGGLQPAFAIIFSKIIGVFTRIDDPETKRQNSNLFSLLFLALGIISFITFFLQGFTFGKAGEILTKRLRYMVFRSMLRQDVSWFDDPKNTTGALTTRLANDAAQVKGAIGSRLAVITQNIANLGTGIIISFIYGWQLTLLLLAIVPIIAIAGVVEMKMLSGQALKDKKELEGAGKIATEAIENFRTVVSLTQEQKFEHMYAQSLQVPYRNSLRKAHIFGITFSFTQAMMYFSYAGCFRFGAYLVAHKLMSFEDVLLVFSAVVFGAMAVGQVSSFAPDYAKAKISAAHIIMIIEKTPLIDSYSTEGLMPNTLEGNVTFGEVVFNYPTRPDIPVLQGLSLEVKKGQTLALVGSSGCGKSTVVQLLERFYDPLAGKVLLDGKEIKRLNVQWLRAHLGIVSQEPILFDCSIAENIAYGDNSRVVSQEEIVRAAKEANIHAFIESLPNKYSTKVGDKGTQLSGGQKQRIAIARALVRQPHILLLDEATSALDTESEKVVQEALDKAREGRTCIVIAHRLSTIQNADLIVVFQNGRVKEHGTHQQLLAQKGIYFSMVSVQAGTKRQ
# T3 sequence (P08183 whole entry): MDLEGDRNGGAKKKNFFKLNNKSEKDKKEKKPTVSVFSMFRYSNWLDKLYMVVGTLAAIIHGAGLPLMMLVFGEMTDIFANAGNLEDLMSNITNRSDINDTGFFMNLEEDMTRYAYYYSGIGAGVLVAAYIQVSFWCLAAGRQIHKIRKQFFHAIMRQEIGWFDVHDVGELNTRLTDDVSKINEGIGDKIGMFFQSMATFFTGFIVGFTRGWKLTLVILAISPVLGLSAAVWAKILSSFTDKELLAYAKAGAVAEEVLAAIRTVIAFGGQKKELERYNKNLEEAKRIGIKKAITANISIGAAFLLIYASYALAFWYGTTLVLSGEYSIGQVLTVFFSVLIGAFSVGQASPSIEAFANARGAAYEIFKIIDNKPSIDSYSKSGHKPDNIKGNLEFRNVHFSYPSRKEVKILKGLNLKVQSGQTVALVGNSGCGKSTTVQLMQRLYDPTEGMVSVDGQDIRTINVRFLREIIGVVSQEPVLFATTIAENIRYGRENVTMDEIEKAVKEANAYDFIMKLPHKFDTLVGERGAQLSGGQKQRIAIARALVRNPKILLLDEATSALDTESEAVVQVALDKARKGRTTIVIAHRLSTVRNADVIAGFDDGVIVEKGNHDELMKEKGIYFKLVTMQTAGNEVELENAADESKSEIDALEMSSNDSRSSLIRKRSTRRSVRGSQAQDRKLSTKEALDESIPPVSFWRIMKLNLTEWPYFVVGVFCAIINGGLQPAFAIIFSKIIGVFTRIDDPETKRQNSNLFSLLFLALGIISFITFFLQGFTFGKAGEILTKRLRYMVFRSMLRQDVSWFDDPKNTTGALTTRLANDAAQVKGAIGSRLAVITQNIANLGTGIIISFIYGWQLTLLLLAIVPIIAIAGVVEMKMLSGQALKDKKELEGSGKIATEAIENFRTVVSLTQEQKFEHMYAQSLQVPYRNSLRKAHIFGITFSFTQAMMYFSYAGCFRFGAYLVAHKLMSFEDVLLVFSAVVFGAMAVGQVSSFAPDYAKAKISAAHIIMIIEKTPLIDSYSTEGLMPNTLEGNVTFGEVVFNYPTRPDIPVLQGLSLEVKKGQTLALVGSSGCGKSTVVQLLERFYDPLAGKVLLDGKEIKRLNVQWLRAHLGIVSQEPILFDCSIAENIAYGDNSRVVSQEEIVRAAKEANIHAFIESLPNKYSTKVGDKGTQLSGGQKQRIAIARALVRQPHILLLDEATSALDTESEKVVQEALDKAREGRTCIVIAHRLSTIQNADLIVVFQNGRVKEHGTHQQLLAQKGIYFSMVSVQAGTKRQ
# T2 sequence (P08183 whole entry S893T): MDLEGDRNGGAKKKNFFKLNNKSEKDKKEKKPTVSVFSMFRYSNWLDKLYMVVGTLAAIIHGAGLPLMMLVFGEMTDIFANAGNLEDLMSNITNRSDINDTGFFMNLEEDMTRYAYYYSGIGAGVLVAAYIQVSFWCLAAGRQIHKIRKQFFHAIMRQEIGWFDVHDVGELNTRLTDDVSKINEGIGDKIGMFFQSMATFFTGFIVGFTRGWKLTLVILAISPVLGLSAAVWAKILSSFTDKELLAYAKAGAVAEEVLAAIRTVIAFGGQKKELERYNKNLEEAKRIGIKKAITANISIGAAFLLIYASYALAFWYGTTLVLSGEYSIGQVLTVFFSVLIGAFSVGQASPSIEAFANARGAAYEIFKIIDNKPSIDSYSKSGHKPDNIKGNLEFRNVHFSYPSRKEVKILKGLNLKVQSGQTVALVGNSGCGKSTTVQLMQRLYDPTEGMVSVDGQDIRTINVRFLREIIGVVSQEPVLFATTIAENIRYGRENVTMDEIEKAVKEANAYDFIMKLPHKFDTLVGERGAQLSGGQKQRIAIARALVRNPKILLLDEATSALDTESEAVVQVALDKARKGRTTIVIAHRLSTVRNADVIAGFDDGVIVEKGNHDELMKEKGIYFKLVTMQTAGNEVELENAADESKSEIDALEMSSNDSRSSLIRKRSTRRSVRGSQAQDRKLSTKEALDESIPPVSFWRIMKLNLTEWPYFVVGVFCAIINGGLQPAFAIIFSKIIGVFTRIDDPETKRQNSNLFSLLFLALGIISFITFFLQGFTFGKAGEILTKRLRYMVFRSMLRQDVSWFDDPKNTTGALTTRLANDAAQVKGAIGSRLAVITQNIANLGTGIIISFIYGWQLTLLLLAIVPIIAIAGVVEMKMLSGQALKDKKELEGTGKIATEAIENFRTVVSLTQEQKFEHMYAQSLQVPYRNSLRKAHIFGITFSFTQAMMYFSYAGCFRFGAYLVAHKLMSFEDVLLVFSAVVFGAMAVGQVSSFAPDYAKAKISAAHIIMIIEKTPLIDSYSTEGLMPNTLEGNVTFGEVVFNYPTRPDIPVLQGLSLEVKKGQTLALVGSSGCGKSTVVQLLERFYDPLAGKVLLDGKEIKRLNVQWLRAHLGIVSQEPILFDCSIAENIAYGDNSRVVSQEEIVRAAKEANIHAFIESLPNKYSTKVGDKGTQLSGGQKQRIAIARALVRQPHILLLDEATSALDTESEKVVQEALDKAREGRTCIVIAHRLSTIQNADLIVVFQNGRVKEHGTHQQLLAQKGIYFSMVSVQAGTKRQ
Structure (SMILES),IC50 [1],Ki [1],IC50 [2],Ki [2],IC50 [3],Ki [3],cell viability (MTT assay) (Flp-In™-293 cells),therapeutic range [4],Vmax of rhodamine 123 efflux [5],Vmax of rhodamine 123 efflux [6],Km at 10 min [7],Km at 10 min [8],non-specific first-order rate constant of rhodamine 123 efflux [9],non-specific transport as share of the total efflux [9],Km at 10 min [10]
CCC(=O)C(CC(C)N(C)C)(c1ccccc1)c1ccccc1 (stereo not drawn) [methadone],2.17 ± 0.1 µM,2.77 ± 0.15 µM,4.43 ± 1.1 µM,4.53 ± 1.17 µM,2.97 ± 0.09 µM,3.92 ± 0.07 µM,did not affect,1 to 3 µM,–,–,–,–,–,–,–
COC(=O)c1ccccc1-c1c2ccc(=N)cc-2oc2cc(N)ccc12 [Rhodamine 123],–,–,–,–,–,–,–,–,7.34±0.63 nmole/mg protein/10 min,8.29±0.89 nmole/mg protein/10 min,18.8 ± 2 µM,14.8 ± 1.72 µM,12.08±1.23 µL/mg protein/10 min,2.9%,16.6 ± 3.01 µM
